pIC50: −log10 of the molar value. Entries after “also recorded” stand apart in the source; their conditions may differ. Read-outs that look alike come from different tables or passages of the source.
How the values were obtained:
H4 neuroglioma cell line = assay: Viability (toxicity) assay, alamar Blue; format: cell-based; conditions: for effect on the viability of the cells at the lower doses: 9-ethylharmine 1 μM, harmine 0.8 μM; for pIC50: read-out: IC50 for viability (toxicity)
[1] = test system: total tau and phosphorylated tau (12E8 pS262/pS356, pT231, pS396) in 4R0N tau overexpressing H4 neuroglioma cells; assay: Cell culture tau assay (Western blot of total and phosphorylated tau); format: cell-based; conditions: for effects in the cell-based tau assay: FIG. 3; for phosphorylated forms of tau (12E8 pS262/pS356, pT231, pS396): H4-tau cells, 80 nM, 800 nM and 8 μM, 96 hours; for total tau and phosphorylated forms of tau: doses up to 500 μM
recombinant human DYRK1A = target: T1, recombinant human DYRK1A (Homo sapiens, UniProt Q13627); format: biochemical; conditions: for pIC50: recombinant DYRK1A and 4R2N tau, 1 mM ATP, read-out: IC50, inhibition of DYRK1A dependent tau phosphorylation at serine 396
T1 construct: purchased Invitrogen (DYRK1A); SignalChem (tau)

[2] = test system: spatial working memory and short-term memory retention; assay: Delayed-match-to-sample asymmetrical 3-choice task; format: in vivo, rat
Excerpt: (§1) Twenty-six 17 month-old Fischer-344 male rats raised at the National Institute on Aging colony at Harlan Laboratories (Indianapolis, Ind.) were used in the study. After arrival, rats were pair-housed, had food and water ad-lib, and were maintained on a 12-h light/dark cycle. Procedures were approved by the Institutional Animal Care and Use Committee, and adhered to National Institutes of Health standards.
(§2) Rats were randomly divided into three treatment groups (n at start of study, m included in final behavioral analyses): vehicle (10, 10), low-Harmine 1 mg/kg (10, 10), or high-Harmine 5 mg/kg (10, 6). […]
Spatial working memory and short-term memory retention were evaluated using a win-stay water-escape DMS asymmetrical place-learning task. […] Entry into any non-platformed arm was counted as an error. An arm entry was counted when the tip of a rat's snout reached a mark on the outside of the arm (not visible from the inside of the maze; 11 cm into the arm).
In an initial analysis, Harmine-low and Harmine-high groups were compared. […] DMS data were analyzed with an omnibus ANOVA with treatment as the between groups variable and total number of errors for each trial as repeated measures. MM data were analyzed with an omnibus ANOVA with treatment as the between groups variable and swim distance (cm) to the platform as repeated measures. […]

spatial reference memory = assay: Morris water maze; format: in vivo, rat; conditions: rats
Excerpt: as §1, §2
Spatial reference memory was evaluated using the Morris Maze. […] A video camera and tracking system tracked and measured each rat's swim pathway.
(§3) In an initial analysis, Harmine-low and Harmine-high groups were compared. […] DMS data were analyzed with an omnibus ANOVA with treatment as the between groups variable and total number of errors for each trial as repeated measures. MM data were analyzed with an omnibus ANOVA with treatment as the between groups variable and swim distance (cm) to the platform as repeated measures. […] Visible platform data were further analyzed using a regression analysis with testing squad (1-3) as the predictor and mean escape latency across trials 1-6 as the criterion. […]

[3] = test system: motor and visual competence; assay: Visible platform task and observed motor side effects; format: in vivo, rat; conditions: rats
Excerpt: as §1
Rats were randomly divided into three treatment groups (n at start of study, m included in final behavioral analyses): vehicle (10, 10), low-Harmine 1 mg/kg (10, 10), or high-Harmine 5 mg/kg (10, 6). Nine days after arrival, animals started receiving daily subcutaneous injections at a volume of 1 ml/kg. […] Behavioral testing began after the second injection day, testing commenced approximately 30-45 minutes after injections and lasted for 6-8 hours. Animals were assigned semi-randomly to one of three testing squads of 10 animals each balanced with respect to treatment group.
Four days after MM testing, motor and visual competence were evaluated using the visible platform task. This was an adaptation of the cue-navigation version of the spatial MM task previously used to dissociate visual and motor acuity from place memory. This task was ideal due to its similarity to other spatial water-maze tasks with respect to motor and visual requirements, differing only in that animals are not required to associate the location of the platform with distal cues. […]
as §3

CCn1c2cc(OC)ccc2c2ccnc(C)c21 [9-ethyl harmine]
effect on the viability of the cells at the lower doses (H4 neuroglioma cell line): no detectable effect
pIC50 (H4 neuroglioma cell line): 5.05
reducing total tau and phosphorylated tau levels ([1]; 1 μM): significant reductions
reducing total tau and phosphorylated tau levels ([1]; dose of 10 μM): significant effects
pIC50 (recombinant human DYRK1A): 6.40

COc1ccc2c3c([nH]c2c1)C(C)=NCC3 [harmaline]
pIC50 (H4 neuroglioma cell line): 4.25
effects in the cell-based tau assay [1]: relatively muted effects
affinity relative to harmine in the in vitro phosphorylation assay (recombinant human DYRK1A): more than an order of magnitude lower in affinity than harmine

Cc1nccc2c1[nH]c1ccccc12 [harmane]
pIC50 (H4 neuroglioma cell line): 4.49
effects in the cell-based tau assay [1]: relatively muted effects
affinity relative to harmine in the in vitro phosphorylation assay (recombinant human DYRK1A): more than an order of magnitude lower in affinity than harmine

COc1ccc2c(c1)[nH]c1c(C)nccc12 [harmine]
effect on the viability of the cells at the lower doses (H4 neuroglioma cell line): no detectable effect
pIC50 (H4 neuroglioma cell line): 4.92
reducing total tau and phosphorylated tau levels ([1]; 0.8 μM): significant reductions
levels of total tau protein ([1]; 0.8 μM and 8 μM): reduce the levels of total tau protein
phosphorylated forms of tau (12E8 pS262/pS356, pT231, pS396) [1]: dose-dependent reduction
phosphorylated forms of tau (12E8 pS262/pS356, pT231, pS396) ([1]; listed as Harmine): reduced the expression of each phospho-tau species tested
reducing total tau and phosphorylated tau levels ([1]; dose of 10 μM): significant effects
total errors on the DMS task, testing block 4 (Days 8-9), trials 2-6 ([2]; 17 month-old Fischer-344 male rats, 1 and 5 mg/kg daily subcutaneous, groups combined, vs vehicle, P=0.03): enhanced working and short-term memory; also recorded: fewer total errors
DMS task, testing blocks 1, 2 or 3 ([2]; rats, 1 and 5 mg/kg s.c. combined): no main effects
Morris maze distance swam to the platform, days 1-3 (spatial reference memory; 1 and 5 mg/kg s.c.): no Harmine treatment main effects
effect on spatial reference memory (spatial reference memory; doses tested 1 and 5 mg/kg s.c.): no significant effect
decrease of mean escape latency with each squad tested (visible platform task) ([3]; Harmine-high 5 mg/kg s.c.): roughly 11.6 seconds
duration of motor impairments after injections ([3]; Harmine-high 5 mg/kg s.c.): 1 to 2 h
motoric effects ([3]; harmine treatment): obvious motoric effects

O=C(NCCN1CCOCC1)c1ccc(Cl)cc1 [moclobemide, reference compound]
total tau and phosphorylated forms of tau [1]: did not affect tau phosphorylation
total tau and phosphorylated forms of tau ([1]; listed as Moclobemide): did not reduce levels

c1ccc2c(c1)[nH]c1cnccc12 [norharmane]
pIC50 (H4 neuroglioma cell line): 4.02
effects in the cell-based tau assay [1]: relatively muted effects
affinity relative to harmine in the in vitro phosphorylation assay (recombinant human DYRK1A): more than an order of magnitude lower in affinity than harmine

harmol
pIC50 (H4 neuroglioma cell line; H4 neuroglioma cell line, alamar Blue, fresh drug every 24 hours for 4 days): 4.74
reducing total tau and phosphorylated tau levels ([1]; dose of 10 μM): significant effects
pIC50 (recombinant human DYRK1A): 7.05

Reference: US20150216848A1, “COMPOUNDS THAT INHIBIT TAU PHOSPHORYLATION” (THE TRANSLATIONAL GENOMICS RESEARCH INSTITUTE, priority 2010, published 2015)
